Data reported in patent EP4745137A1 (Gluetacs Therapeutics (Shanghai) Co., Ltd., priority 2023, dated 2025).

Experiments:
Format in all cases: cell-based
Conditions in all cases: 24 hours of compound treatment
CK1α = target: T1, CK1α (Homo sapiens, UniProt P48729+Q96SW2); experiment: Western-blot assay of substrate protein degradation in hPBMCs, CK1α
T1 construct: endogenous in cells; host or cells: hPBMCs (Milecell Biotechnologies)
Protocol: (§1) After 24 hours of compounds treatment, cells were harvested and lysed in RIPA protein lysate containing protease inhibitors on ice for 30 min, followed by centrifugation. The supernatant was aspirated as the extracted total cell protein. The protein concentration of the supernatant was determined using the conventional BCA (Bicinchoninic Acid) assay. • (2) To the collected supernatant, 5X SDS sample loading buffer was added, followed by denaturation at 95°C for 5 minutes. The denatured samples were then separated by SDS-PAGE electrophoresis on a polyacrylamide gel, transferred onto a nitrocellulose membrane (0.45 µm NC membrane), blocked with blocking buffer at room temperature for 1 hour, and subjected to antibody incubation and development procedures according to the antibody manufacturer's instructions (Cell Signaling Technology Company). […]
(§2) Target protein remaining (%) refers to the percentage of target protein remaining in cells after treatment with protein degrader compounds.
(§3) Calculation method for target protein remaining (%): Use ImageJ software to measure grayscale values of Western blot bands from drug (protein degrader)-treated samples. The grayscale value of drug-treated bands is divided by that of internal control protein bands, and the resulting quotient is normalized to obtain the relative percentage of remaining target protein after protein degrader treatment. Target protein degradation rate(%) = 1−target protein remaining(%). [formula]

WEE1 = target: T2, WEE1 (Homo sapiens, UniProt P30291+Q96SW2); experiment: Western-blot assay of substrate protein degradation in hPBMCs, WEE1
T2 construct: endogenous in cells; host or cells: hPBMCs (Milecell Biotechnologies)
T2 sequence (P30291 whole entry): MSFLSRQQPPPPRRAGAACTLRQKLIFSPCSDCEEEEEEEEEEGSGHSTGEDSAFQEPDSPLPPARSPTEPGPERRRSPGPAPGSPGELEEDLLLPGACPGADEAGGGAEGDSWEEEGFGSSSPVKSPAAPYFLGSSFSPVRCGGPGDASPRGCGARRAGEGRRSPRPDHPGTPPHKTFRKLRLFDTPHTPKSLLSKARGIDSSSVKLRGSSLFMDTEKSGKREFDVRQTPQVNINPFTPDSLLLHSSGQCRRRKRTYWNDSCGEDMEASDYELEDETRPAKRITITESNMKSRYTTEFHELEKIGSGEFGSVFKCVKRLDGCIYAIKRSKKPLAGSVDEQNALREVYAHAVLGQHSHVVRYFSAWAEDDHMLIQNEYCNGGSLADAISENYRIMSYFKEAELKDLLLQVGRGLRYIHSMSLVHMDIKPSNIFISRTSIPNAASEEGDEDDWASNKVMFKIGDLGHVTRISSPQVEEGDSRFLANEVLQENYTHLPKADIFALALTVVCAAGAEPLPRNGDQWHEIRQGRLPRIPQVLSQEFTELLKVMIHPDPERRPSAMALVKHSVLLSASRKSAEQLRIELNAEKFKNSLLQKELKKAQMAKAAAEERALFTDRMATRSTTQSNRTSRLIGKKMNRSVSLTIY
T2 sequence (Q96SW2 whole entry): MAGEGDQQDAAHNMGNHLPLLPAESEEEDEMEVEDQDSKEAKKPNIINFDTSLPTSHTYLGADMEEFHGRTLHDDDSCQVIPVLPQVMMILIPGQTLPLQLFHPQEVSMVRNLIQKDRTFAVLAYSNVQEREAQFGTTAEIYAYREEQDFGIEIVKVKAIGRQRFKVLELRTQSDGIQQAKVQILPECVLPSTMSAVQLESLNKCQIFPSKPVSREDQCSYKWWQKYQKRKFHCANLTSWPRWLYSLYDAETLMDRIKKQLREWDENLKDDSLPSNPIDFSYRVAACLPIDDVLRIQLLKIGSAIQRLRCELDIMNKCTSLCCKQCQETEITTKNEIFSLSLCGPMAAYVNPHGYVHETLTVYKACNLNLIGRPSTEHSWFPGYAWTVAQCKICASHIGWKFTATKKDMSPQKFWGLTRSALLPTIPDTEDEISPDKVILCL
T2 sequence (Q16531 whole entry partner): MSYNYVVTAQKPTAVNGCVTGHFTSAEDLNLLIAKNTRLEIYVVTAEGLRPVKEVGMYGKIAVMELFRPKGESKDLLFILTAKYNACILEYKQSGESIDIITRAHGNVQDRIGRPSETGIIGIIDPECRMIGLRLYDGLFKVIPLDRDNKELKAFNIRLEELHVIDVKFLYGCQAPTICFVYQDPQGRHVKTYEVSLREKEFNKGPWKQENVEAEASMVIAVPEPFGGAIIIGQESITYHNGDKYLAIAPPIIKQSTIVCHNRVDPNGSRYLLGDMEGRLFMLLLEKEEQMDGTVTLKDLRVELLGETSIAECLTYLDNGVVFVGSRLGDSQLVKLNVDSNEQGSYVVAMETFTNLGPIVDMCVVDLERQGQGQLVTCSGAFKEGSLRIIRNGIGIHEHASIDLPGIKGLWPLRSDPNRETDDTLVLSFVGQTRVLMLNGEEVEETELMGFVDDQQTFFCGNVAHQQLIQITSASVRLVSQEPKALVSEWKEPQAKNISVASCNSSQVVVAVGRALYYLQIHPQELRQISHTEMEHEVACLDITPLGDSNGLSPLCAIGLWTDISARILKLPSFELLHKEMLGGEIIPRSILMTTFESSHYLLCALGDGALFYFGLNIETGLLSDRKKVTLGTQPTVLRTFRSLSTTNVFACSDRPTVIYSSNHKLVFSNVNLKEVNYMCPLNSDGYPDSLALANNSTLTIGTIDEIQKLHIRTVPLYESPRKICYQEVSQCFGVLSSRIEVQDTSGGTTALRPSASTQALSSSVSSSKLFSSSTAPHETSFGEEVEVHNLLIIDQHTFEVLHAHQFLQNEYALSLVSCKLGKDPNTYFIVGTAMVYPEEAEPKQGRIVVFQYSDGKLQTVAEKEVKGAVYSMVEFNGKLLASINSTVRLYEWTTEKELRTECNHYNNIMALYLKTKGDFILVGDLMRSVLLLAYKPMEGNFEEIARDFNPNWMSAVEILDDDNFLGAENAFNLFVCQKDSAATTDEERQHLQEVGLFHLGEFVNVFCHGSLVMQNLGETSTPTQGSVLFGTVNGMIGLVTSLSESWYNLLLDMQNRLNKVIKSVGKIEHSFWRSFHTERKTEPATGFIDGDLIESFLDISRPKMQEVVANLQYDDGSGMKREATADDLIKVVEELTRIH
Protocol: as §1, §2, §3

IKZF1 = target: T3, IKZF1 (Homo sapiens, UniProt Q13422+Q96SW2); experiment: Western-blot assay of substrate protein degradation in hPBMCs, IKZF1
T3 construct: endogenous in cells; host or cells: hPBMCs (Milecell Biotechnologies)
T3 sequence (Q13422 whole entry): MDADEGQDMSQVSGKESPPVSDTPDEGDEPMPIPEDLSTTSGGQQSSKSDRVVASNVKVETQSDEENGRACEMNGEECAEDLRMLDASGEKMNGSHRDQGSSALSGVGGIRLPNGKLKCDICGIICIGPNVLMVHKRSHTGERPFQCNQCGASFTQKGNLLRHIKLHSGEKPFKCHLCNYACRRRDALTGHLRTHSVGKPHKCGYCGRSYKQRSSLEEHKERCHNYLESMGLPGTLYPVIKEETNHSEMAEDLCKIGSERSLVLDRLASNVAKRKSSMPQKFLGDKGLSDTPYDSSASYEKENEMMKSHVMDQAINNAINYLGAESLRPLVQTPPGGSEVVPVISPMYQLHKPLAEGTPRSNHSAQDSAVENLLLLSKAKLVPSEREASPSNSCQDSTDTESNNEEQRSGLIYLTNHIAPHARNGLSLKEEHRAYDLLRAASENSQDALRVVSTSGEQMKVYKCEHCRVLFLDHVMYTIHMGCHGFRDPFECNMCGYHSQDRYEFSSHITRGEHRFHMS
T3 sequence (Q96SW2 whole entry): as the sequence (Q96SW2 whole entry) above
T3 sequence (Q16531 whole entry partner): as the sequence (Q16531 whole entry partner) above
Protocol: as §1, §2, §3

IKZF3 = target: T4, IKZF3 (Homo sapiens, UniProt Q96SW2+Q9UKT9); experiment: Western-blot assay of substrate protein degradation in hPBMCs, IKZF3
T4 construct: endogenous in cells; host or cells: hPBMCs (Milecell Biotechnologies)
T4 sequence (Q9UKT9 whole entry): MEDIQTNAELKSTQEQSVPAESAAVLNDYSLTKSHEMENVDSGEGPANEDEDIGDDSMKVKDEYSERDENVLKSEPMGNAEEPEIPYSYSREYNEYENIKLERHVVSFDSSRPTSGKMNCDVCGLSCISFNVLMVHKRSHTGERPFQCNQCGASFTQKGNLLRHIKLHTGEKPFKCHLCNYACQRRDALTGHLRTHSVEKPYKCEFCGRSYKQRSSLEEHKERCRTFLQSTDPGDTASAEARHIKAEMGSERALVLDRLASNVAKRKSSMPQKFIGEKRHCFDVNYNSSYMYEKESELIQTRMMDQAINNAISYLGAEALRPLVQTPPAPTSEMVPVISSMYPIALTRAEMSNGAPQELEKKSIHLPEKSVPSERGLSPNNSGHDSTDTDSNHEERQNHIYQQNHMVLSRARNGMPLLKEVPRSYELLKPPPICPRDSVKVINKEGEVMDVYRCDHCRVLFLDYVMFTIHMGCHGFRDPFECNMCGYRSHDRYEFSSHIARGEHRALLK
T4 sequence (Q96SW2 whole entry): as the sequence (Q96SW2 whole entry) above
T4 sequence (Q16531 whole entry partner): as the sequence (Q16531 whole entry partner) above
Protocol: as §1, §2, §3

GSPT1 = target: T5, GSPT1 (Homo sapiens, UniProt P15170+Q96SW2); experiment: Western-blot assay of substrate protein degradation in hPBMCs, GSPT1
T5 construct: endogenous in cells; host or cells: hPBMCs (Milecell Biotechnologies)
Protocol: as §1, §2, §3

IKZF2 = target: T6, IKZF2 (Homo sapiens, UniProt Q96SW2+Q9UKS7); experiment: Western-blot assay of substrate protein degradation in hPBMCs, IKZF2
T6 construct: endogenous in cells; host or cells: hPBMCs (Milecell Biotechnologies)
T6 sequence (Q9UKS7 whole entry): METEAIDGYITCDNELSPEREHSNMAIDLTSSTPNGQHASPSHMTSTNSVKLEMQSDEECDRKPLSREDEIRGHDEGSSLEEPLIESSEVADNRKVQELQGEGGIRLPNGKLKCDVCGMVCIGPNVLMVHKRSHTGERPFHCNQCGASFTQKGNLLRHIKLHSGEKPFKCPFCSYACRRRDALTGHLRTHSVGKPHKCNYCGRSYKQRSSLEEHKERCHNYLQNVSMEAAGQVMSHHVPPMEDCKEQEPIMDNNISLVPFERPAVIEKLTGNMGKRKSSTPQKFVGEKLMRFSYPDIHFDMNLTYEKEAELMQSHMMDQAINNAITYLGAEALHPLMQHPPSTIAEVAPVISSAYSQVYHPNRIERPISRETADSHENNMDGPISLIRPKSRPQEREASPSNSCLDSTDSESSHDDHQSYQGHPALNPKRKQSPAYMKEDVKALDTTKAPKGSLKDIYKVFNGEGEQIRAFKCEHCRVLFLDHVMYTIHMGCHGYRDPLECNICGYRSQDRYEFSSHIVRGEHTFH
T6 sequence (Q96SW2 whole entry): as the sequence (Q96SW2 whole entry) above
T6 sequence (Q16531 whole entry partner): as the sequence (Q16531 whole entry partner) above
Protocol: as §1, §2, §3

[1] = compounds tested at 50 nM and 500 nM (concentration of the table not stated)
[2] = 50 nM and 500 nM tested (concentration behind the class not stated)

T1 sequence (P48729 whole entry): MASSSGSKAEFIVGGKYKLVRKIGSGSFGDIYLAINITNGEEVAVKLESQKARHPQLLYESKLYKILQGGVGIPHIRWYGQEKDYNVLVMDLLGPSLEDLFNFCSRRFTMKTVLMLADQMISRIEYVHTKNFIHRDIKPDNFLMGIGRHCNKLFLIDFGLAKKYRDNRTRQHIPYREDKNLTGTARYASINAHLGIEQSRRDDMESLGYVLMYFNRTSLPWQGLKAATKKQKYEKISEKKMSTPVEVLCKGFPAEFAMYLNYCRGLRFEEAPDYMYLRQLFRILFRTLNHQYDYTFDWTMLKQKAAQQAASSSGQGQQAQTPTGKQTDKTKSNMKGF
T1 sequence (Q96SW2 whole entry): as the sequence (Q96SW2 whole entry) above
T1 sequence (Q16531 whole entry partner): as the sequence (Q16531 whole entry partner) above

O=C1CCC(N2C(=O)c3ccc(CN4CCC(c5cccc6c(F)cccc56)CC4)cc3C2=O)C(=O)N1 (stereo not drawn) [GT-06263, 2-(2,6-dioxopiperidin-3-yl)-5-((4-(5-fluoronaphthalen-1-yl)piperidin-1-yl)methyl)isoindoline-1,3-dione]
CK1a substrate protein remaining % (CK1α; [1]): A (0% ≤ substrate protein remaining % ≤ 80%)
Weel substrate protein remaining % (WEE1; [1]): B (80%< substrate protein remaining %≤ 100%)
IKZF 1 substrate protein remaining % (IKZF1; [1]): B (80%< substrate protein remaining %≤ 100%)
IKZF3 substrate protein remaining % (IKZF3; [1]): A (0% ≤ substrate protein remaining % ≤ 80%)
GSPT1 substrate protein remaining % (GSPT1; [1]): A (0% ≤ substrate protein remaining % ≤ 80%)
IKZF2 substrate protein remaining % (IKZF2; [1]): B (80%< substrate protein remaining %≤ 100%)

O=C1CCC(N2C(=O)c3ccc(CN4CC=C(c5cccc6c(F)cccc56)CC4)cc3C2=O)C(=O)N1 (stereo not drawn) [GT-06264, 2-(2,6-dioxopiperidin-3-yl)-5-((4-(5-fluoronaphthalen-1-yl)-3,6-dihydropyridin-1(2H)-yl)methyl)isoindoline-1,3-dione]
CK1a substrate protein remaining % (CK1α; [1]): A (0% ≤ substrate protein remaining % ≤ 80%)
Weel substrate protein remaining % (WEE1; [1]): A (0% ≤ substrate protein remaining % ≤ 80%)
IKZF 1 substrate protein remaining % (IKZF1; [1]): A (0% ≤ substrate protein remaining % ≤ 80%)
IKZF3 substrate protein remaining % (IKZF3; [1]): A (0% ≤ substrate protein remaining % ≤ 80%)
GSPT1 substrate protein remaining % (GSPT1; [1]): A (0% ≤ substrate protein remaining % ≤ 80%)
IKZF2 substrate protein remaining % (IKZF2; [1]): A (0% ≤ substrate protein remaining % ≤ 80%)

O=C1CCC(N2C(=O)c3ccc(CN4CCC(c5ccnc6cc(F)ccc56)CC4)cc3C2=O)C(=O)N1 (stereo not drawn) [GT-06265, 2-(2,6-dioxopiperidin-3-yl)-5-((4-(7-fluoroquinolin-4-yl)piperidin-1-yl)methyl)isoindoline-1,3-dione]
CK1a substrate protein remaining % (CK1α; [1]): B (80%< substrate protein remaining %≤ 100%)
Weel substrate protein remaining % (WEE1; [1]): B (80%< substrate protein remaining %≤ 100%)
IKZF 1 substrate protein remaining % (IKZF1; [1]): B (80%< substrate protein remaining %≤ 100%)
IKZF3 substrate protein remaining % (IKZF3; [1]): B (80%< substrate protein remaining %≤ 100%)
GSPT1 substrate protein remaining % (GSPT1; [1]): B (80%< substrate protein remaining %≤ 100%)
IKZF2 substrate protein remaining % (IKZF2; [1]): A (0% ≤ substrate protein remaining % ≤ 80%)

O=C1CCC(N2C(=O)c3ccc(CN4CCC(c5cccc6cnccc56)CC4)cc3C2=O)C(=O)N1 (stereo not drawn) [GT-06266, 2-(2,6-dioxopiperidin-3-yl)-5-((4-(isoquinolin-5-yl)piperidin-1-yl)methyl)isoindoline-1,3-dione]
CK1a substrate protein remaining % (CK1α; [1]): B (80%< substrate protein remaining %≤ 100%)
Weel substrate protein remaining % (WEE1; [1]): B (80%< substrate protein remaining %≤ 100%)
IKZF 1 substrate protein remaining % (IKZF1; [1]): B (80%< substrate protein remaining %≤ 100%)
IKZF3 substrate protein remaining % (IKZF3; [1]): B (80%< substrate protein remaining %≤ 100%)
GSPT1 substrate protein remaining % (GSPT1; [1]): B (80%< substrate protein remaining %≤ 100%)
IKZF2 substrate protein remaining % (IKZF2; [1]): A (0% ≤ substrate protein remaining % ≤ 80%)

O=C1CCC(N2C(=O)c3ccc(CN4CC=C(c5ccnc6cc(F)ccc56)CC4)cc3C2=O)C(=O)N1 (stereo not drawn) [GT-06267, 2-(2,6-dioxopiperidin-3-yl)-5-((4-(7-fluoroquinolin-4-yl)-3,6-dihydropyridin-1(2H)-yl)methyl)isoindoline-1,3-dione]
CK1a substrate protein remaining % (CK1α; [1]): A (0% ≤ substrate protein remaining % ≤ 80%)
Weel substrate protein remaining % (WEE1; [1]): A (0% ≤ substrate protein remaining % ≤ 80%)
IKZF 1 substrate protein remaining % (IKZF1; [1]): B (80%< substrate protein remaining %≤ 100%)
IKZF3 substrate protein remaining % (IKZF3; [1]): A (0% ≤ substrate protein remaining % ≤ 80%)
GSPT1 substrate protein remaining % (GSPT1; [1]): A (0% ≤ substrate protein remaining % ≤ 80%)
IKZF2 substrate protein remaining % (IKZF2; [1]): A (0% ≤ substrate protein remaining % ≤ 80%)

O=C1CCC(N2C(=O)c3ccc(CN4CC=C(c5cccc6cnccc56)CC4)cc3C2=O)C(=O)N1 (stereo not drawn) [GT-06268, 2-(2,6-dioxopiperidin-3-yl)-5-((4-(isoquinolin-5-yl)-3,6-dihydropyridin-1(2H)-yl)methyl)isoindoline-1,3-dione]
CK1a substrate protein remaining % (CK1α; [1]): A (0% ≤ substrate protein remaining % ≤ 80%)
Weel substrate protein remaining % (WEE1; [1]): A (0% ≤ substrate protein remaining % ≤ 80%)
IKZF 1 substrate protein remaining % (IKZF1; [1]): B (80%< substrate protein remaining %≤ 100%)
IKZF3 substrate protein remaining % (IKZF3; [1]): A (0% ≤ substrate protein remaining % ≤ 80%)
GSPT1 substrate protein remaining % (GSPT1; [1]): A (0% ≤ substrate protein remaining % ≤ 80%)
IKZF2 substrate protein remaining % (IKZF2; [1]): A (0% ≤ substrate protein remaining % ≤ 80%)

O=C1CCC(N2C(=O)c3ccc(CN4CC(C5CCOc6cc(F)ccc65)C4)cc3C2=O)C(=O)N1 (stereo not drawn) [GT-06269, 2-(2,6-dioxopiperidin-3-yl)-5-((3-(7-fluorochroman-4-yl)azetidin-1-yl)methyl)isoindoline-1,3-dione]
CK1a substrate protein remaining % (CK1α; [1]): B (80%< substrate protein remaining %≤ 100%)
Weel substrate protein remaining % (WEE1; [1]): B (80%< substrate protein remaining %≤ 100%)
IKZF 1 substrate protein remaining % (IKZF1; [1]): B (80%< substrate protein remaining %≤ 100%)
IKZF3 substrate protein remaining % (IKZF3; [1]): A (0% ≤ substrate protein remaining % ≤ 80%)
GSPT1 substrate protein remaining % (GSPT1; [1]): A (0% ≤ substrate protein remaining % ≤ 80%)
IKZF2 substrate protein remaining % (IKZF2; [1]): A (0% ≤ substrate protein remaining % ≤ 80%)

O=C1CCC(N2C(=O)c3ccc(CN4CC(c5ccnc6cc(F)ccc56)C4)cc3C2=O)C(=O)N1 (stereo not drawn) [GT-06270, 2-(2,6-dioxopiperidin-3-yl)-5-((3-(7-fluoroquinolin-4-yl)azetidin-1-yl)methyl)isoindoline-1,3-dione]
CK1a substrate protein remaining % (CK1α; [2]): B (80%< substrate protein remaining %≤ 100%)
Weel substrate protein remaining % (WEE1; [2]): B (80%< substrate protein remaining %≤ 100%)
IKZF 1 substrate protein remaining % (IKZF1; [2]): B (80%< substrate protein remaining %≤ 100%)
IKZF3 substrate protein remaining % (IKZF3; [2]): B (80%< substrate protein remaining %≤ 100%)
GSPT1 substrate protein remaining % (GSPT1; [2]): A (0% ≤ substrate protein remaining % ≤ 80%)
IKZF2 substrate protein remaining % (IKZF2; [2]): B (80%< substrate protein remaining %≤ 100%)

O=C1CCC(N2C(=O)c3ccc(CN4CC(N5CCc6cc(F)ccc65)C4)cc3C2=O)C(=O)N1 (stereo not drawn) [GT-06271, 2-(2,6-dioxopiperidin-3-yl)-5-((3-(5-fluoroindolin-1-yl)azetidin-1-yl)methyl)isoindoline-1,3-dione]
CK1a substrate protein remaining % (CK1α; [2]): B (80%< substrate protein remaining %≤ 100%)
Weel substrate protein remaining % (WEE1; [2]): A (0% ≤ substrate protein remaining % ≤ 80%)
IKZF 1 substrate protein remaining % (IKZF1; [2]): A (0% ≤ substrate protein remaining % ≤ 80%)
IKZF3 substrate protein remaining % (IKZF3; [2]): B (80%< substrate protein remaining %≤ 100%)
GSPT1 substrate protein remaining % (GSPT1; [2]): A (0% ≤ substrate protein remaining % ≤ 80%)
IKZF2 substrate protein remaining % (IKZF2; [2]): A (0% ≤ substrate protein remaining % ≤ 80%)

O=C1CCC(N2C(=O)c3ccc(CN4CCN(c5cccc(Cl)c5Cl)CC4)cc3C2=O)C(=O)N1 (stereo not drawn) [GT-06273, 5-((4-(2,3-dichlorophenyl)piperazin-1-yl)methyl)-2-(2,6-dioxopiperidin-3-yl)isoindoline-1,3-dione]
CK1a substrate protein remaining % (CK1α; [2]): A (0% ≤ substrate protein remaining % ≤ 80%)
Weel substrate protein remaining % (WEE1; [2]): A (0% ≤ substrate protein remaining % ≤ 80%)
IKZF 1 substrate protein remaining % (IKZF1; [2]): A (0% ≤ substrate protein remaining % ≤ 80%)
IKZF3 substrate protein remaining % (IKZF3; [2]): A (0% ≤ substrate protein remaining % ≤ 80%)
GSPT1 substrate protein remaining % (GSPT1; [2]): A (0% ≤ substrate protein remaining % ≤ 80%)
IKZF2 substrate protein remaining % (IKZF2; [2]): A (0% ≤ substrate protein remaining % ≤ 80%)

O=C1CCC(N2C(=O)c3ccc(CN4CCN(c5ccccc5Cl)CC4)cc3C2=O)C(=O)N1 (stereo not drawn) [GT-06274, 5-((4-(2-chlorophenyl)piperazin-1-yl)methyl)-2-(2,6-dioxopiperidin-3-yl)isoindoline-1,3-dione]
CK1a substrate protein remaining % (CK1α; [2]): B (80%< substrate protein remaining %≤ 100%)
Weel substrate protein remaining % (WEE1; [2]): B (80%< substrate protein remaining %≤ 100%)
IKZF 1 substrate protein remaining % (IKZF1; [2]): B (80%< substrate protein remaining %≤ 100%)
IKZF3 substrate protein remaining % (IKZF3; [2]): B (80%< substrate protein remaining %≤ 100%)
GSPT1 substrate protein remaining % (GSPT1; [2]): A (0% ≤ substrate protein remaining % ≤ 80%)
IKZF2 substrate protein remaining % (IKZF2; [2]): B (80%< substrate protein remaining %≤ 100%)
